According to patent US11911348B2, “Therapeutic agent for cancer” (THERAVALUES CORPORATION, priority 2014, dated 2024):

Tested on: MC38 mouse colon cancer tumor
Test: Tumor size of subcutaneously implanted MC38 mouse colon cancer in mice
Type: in vivo
From the text: As the test animals, 6-week old […] mice (female, weighed around 20 g, CLEA Japan, Inc.) were purchased, and used after being acclimated to the environment for two to five days. • (2) Transplantation Method
In the right abdomen of the test animals, 5×10^5 mouse colon cancer cell lines (MC38) were subcutaneously implanted by using a 27 G needle. • (3) Administration method
Into the mice (n=[…] to 8) to which the colon cancer cell lines (MC 38) had been inoculated, every day from the 3rd day after the inoculation to the last day of the experiment, 200 μl of a curcumin solution prepared by suspending a commercially available curcumin 10%-containing pharmaceutical preparation (Theracurmin® CR-031P, manufactured by Theravalues Corporation) (Examples 1 to 4) in water or by suspending the synthetic curcumin-HPMC complex prepared as described below (Example 5) in water (prepared so that the curcumin content as 5 mg or 30 mg per 1 kg body weight) was forcibly administered orally to the mice using a feeding needle.
In addition, as so the control groups, a curcumin single administration group (Comparative Examples 1, 4, 6, and 10) in a case where Rat IgG2b (clone: LTF-2 manufactured by Bio X Cell) was intraperitoneally administered in place of the anti-PD-L1 antibody (clone: 10F·9G2 manufactured by Bio X Cell) or the anti-PD-1 antibody (clone: RMP1-14 manufactured by Bio X. Cell); an anti-PD-L1 antibody single administration group (Comparative Examples 2, 5 and 7) in a case where water was administered in place of the curcumin solution, and an anti-PD-L1 antibody was administered; an anti-PD-1 antibody single administration group (Comparative Examples 9 and 11) in a case where water was administered in place of the curcumin solution, and an anti-PD-1 antibody was administered; and a water administration group (Comparative Example 3) in a case where water was administered in place of the curcumin solution, and Rat IgG2b (clone: LTF-2 manufactured by Bio X Cell) was administered in place of the anti-PD-L1 antibody were prepared. • (4) Evaluation of Tumor Size
The tumor size of the test animals was measured by measuring the long diameter and the short diameter of the tumor with a vernier caliper every 2 to 4 days, and calculated by the following equation. Tumor size=the long diameter×the short diameter×the short diameter÷2 (Mathematical Formula 1) • (5) Preparation method of synthetic curcumin-HPMC complex

SMILES: COc1cc(/C=C/C(=O)/C=C(O)/C=C/c2ccc(O)c(OC)c2)ccc1O [curcumin]
- size of the MC38 mouse colon cancer tumor compared with the control (FIG. 3, curcumin 5 mg/kg/mouse singly administered): same size as that of the control
- antiproliferative effect of the colon cancer tumor (FIG. 3, curcumin 5 mg/kg/mouse, anti-PD-L1 antibody on 7th, 10th, 13th days): not recognized
- size of the MC38 mouse colon cancer tumor compared with the control (FIG. 4, curcumin 30 mg/kg/mouse singly administered): same size as that of the control
- antiproliferative effect of the colon cancer tumor (FIG. 4, curcumin 30 mg/kg/mouse, anti-PD-L1 antibody): not recognized
